Assay: appearance of drug-loading micelle solution versus contrast sample
Format: physicochemical
Conditions: in 10 ml absolute ethanol

appearance of solution: murky
Structure (SMILES): Oc1ccc(C=Cc2cc(O)cc(O)c2)cc1 [resveratrol]
